Results taken from patent US12162864B2, “Condensed-cyclic compound” (Takeda Pharmaceutical Company Limited, priority 2018, dated 2024).

Assays:
human M1 receptor = biological target: T1, human M1 receptor (Homo sapiens, UniProt P11229); assay: Measurement of M1 receptor positive allosteric modulator (M1PAM) activity; type: cell-based; conditions: PAM activity in presence of acetylcholine at EC20 concentration; CHO-K1 cells stably expressing human M1 receptor; IP1 time-resolved fluorescence
T1 construct: expressed in transfected cells; host or cells: CHO-K1
T1 sequence (P11229 1-460): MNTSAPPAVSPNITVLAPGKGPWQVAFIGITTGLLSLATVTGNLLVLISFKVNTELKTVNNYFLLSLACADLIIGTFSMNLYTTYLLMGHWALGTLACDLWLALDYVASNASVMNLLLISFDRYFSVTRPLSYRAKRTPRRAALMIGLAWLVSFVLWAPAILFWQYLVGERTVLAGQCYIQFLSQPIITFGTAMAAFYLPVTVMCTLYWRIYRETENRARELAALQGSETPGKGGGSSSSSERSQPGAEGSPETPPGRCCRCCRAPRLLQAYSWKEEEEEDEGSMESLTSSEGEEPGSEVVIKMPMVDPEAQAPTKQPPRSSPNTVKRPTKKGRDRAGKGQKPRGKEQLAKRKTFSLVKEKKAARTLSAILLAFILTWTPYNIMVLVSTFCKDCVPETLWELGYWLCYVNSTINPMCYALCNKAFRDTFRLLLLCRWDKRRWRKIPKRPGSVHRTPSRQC
Method: Measurement of M1 Receptor Positive Allosteric Modulator (M1PAM) Activity
The activity of a test compound in the presence of acetylcholine at an EC20 concentration affording about 20% action of the maximum activity was measured as PAM activity. The method therefor is as follows. To a 384-well white plate (Greiner™) was added 4 μL of the test compound diluted with IP1 Stimulation buffer (CisBio™) containing 0.1% fatty acid-free BSA containing 80 nM acetylcholine. Freeze stock of CHO-K1 cells stably expressing human M1 receptor (hCHRMl) was prepared with IP1 Stimulation buffer (CisBio™) containing 0.1% fatty acid-free BSA, 4 μL thereof was added (10,000 cells/well) and the mixture was cultured in a 5% CO2 incubator at 37° C. for 1 hr. 4 μL of a solution (CisBio™) containing IP1-d2 and Anti-IP1-cryptate Tb conjugate was added the mixture was incubated at room temperature for 1 hr, and the time-resolved fluorescence signal was measured on an Envision plate reader (Perkin Elmer™). The activity (%) of the test compound was calculated by defining the value when acetylcholine was added at the final concentration of 20 μM as 100% and the value when DMSO was added instead of the test compound under acetylcholine-free conditions as 0%, and the EC50 value was calculated as a value of 50% of the concentration dependence curve of the test compound.

Male SD rats = assay: Rat defecation experiment; type: in vivo; conditions: oral, mean±standard error
Method: Rat Defecation Experiment
Male SD rats (5-6 weeks old) were used after an acclimation period for about 1 week. A test drug (1 mg/kg or 3 mg/kg) was suspended in 0.5% methylcellulose solution and orally administered at a volume of 5 mL/kg, and the number of feces for 2 hr later was counted. Only 0.5% methylcellulose was administered to a solvent administration group.

Rat PK test = type: in vivo; conditions: plasma, male SD rats, cassette dosing; for clearance / MRT: intravenous 0.1 mg/kg; for clearance: read-out: CL total (total clearance) (converted); for MRT: read-out: MRT iv (mean residence time); for Tmax: oral 1 mg/kg, read-out: Tmax (time to reach maximum plasma concentration)
Method: As the rat, 8-week-old male SD rats (Japan SLC, Inc.) were used. They were fed on a solid commercially available diet (CE-2, CLEA Japan, Inc.) and allowed to freely ingest tap water as the drinking water. An intravenous administration solution for the rats was prepared by weighing a test compound, dissolving same in dimethylacetamide (DMA) (Wako Pure Chemical Industries, Ltd.), adding the same volume of 1,3-butanediol (Wako Pure Chemical Industries, Ltd.) and mixing by stirring to give a DMA:1,3-butanediol (1:1, v/v) solution. An oral administration solution was prepared by weighing a test compound, pulverizing same in an agate mortar, and gradually adding 0.5 w/v % aqueous methylcellulose solution to give a suspension. For intravenous administration, the solution was administered into femoral vein of the rats at 0.1 mg/0.5 mL/kg (salt converted to free form). For oral administration, the suspension was administered to the rats at 1 mg/5 mL/kg (salt converted to free form). The cassette dosing method was used for the both administration routes, and the test compound was administered in the following manner. • Compound of Example 5 (intravenous: 9 compounds cassette administration, oral: 4 compounds cassette administration) • Compound of Example 6 (intravenous: 5 compounds cassette administration, oral: 3 compounds cassette administration) • Compound of Example 13 (intravenous: 10 compounds cassette administration, oral: 5 compounds cassette administration) • Compound of Example 14 (intravenous: 7 compounds cassette administration, oral: 3 compounds cassette administration) • Compound of Example 31 (intravenous: 9 compounds cassette administration, oral: 5 compounds cassette administration) • Compound of Example 60 (intravenous: 7 compounds cassette administration, oral: 2 compounds cassette administration)
In the case of intravenous administration, blood samples were collected from the tail vein at 5, 10, 15, 30 min, 1, 2, 4, 8 hr after administration, an anticoagulation treatment with heparin sodium (Shimizu Pharmaceutical Co., Ltd.) was performed, and plasma was collected after centrifugation and subjected to the measurement of drug concentration. In the case of oral administration, blood samples were collected from the tail vein at 15, 30 min, 1, 2, 4, 8 hr after administration, an anticoagulation treatment with heparin sodium was performed, and plasma was collected after centrifugation and subjected to the measurement of drug concentration.
All drug concentrations were measured by LC-MS/MS analysis. For a pharmacokinetics test, the plasma (50 μL) was placed in a tube, acetonitrile (150 μL) containing internal standard solution was added and they were mixed on a vortex mixer. Thereafter, the mixture was centrifuged (5000 rpm, 5 min, 4° C.). The supernatant (60 μL) after centrifugation was added to 10 mmol/L ammonium formate (160 μL) added earlier and mixed therewith. This sample was injected to LC/MS/MS. The HPLC system used was Shimadzu™ LC-20A (Shimadzu Corporation), the column used was Unison UK-C18 HT (3.0 μm, 2.0×20 mm, Imtakt) at 50° C., and 10 mmol/L ammonium formate, 0.2% formic acid as mobile phase A and acetonitrile, 0.2% formic acid as mobile phase B were fed each at a flow rate of 1.2 mL/min under gradient conditions of (B concentration: 0 min→0.1 min, 5%, 0.1→0.75 min, 5-99%, 0.75→1.15 min, 99%, 1.15→1.16 min, 5%, 1.16→1.5 min, 5%). MS/MS used was AB Sciex™ TQ5500-MPX (Applied Biosystems™).
The results are shown in Table 4. • Tmax: time to reach maximum plasma concentration • MRT: mean residence time • iv: intravenous administration • CL total: total clearance

Structure (SMILES)	EC50 (human M1 receptor)	number of feces 2 hr later (Male SD rats; 1 mg/kg)	clearance (Rat PK test)	MRT (Rat PK test)	Tmax (Rat PK test)	number of feces 2 hr later (Male SD rats; 3 mg/kg)
CNC(=O)c1ccc(Cc2cc(C(=O)N[C@H]3CCOC[C@@H]3O)c(OC)c3c2OCC3)cc1F [Example 31, 1,5-anhydro-2,3-dideoxy-3-(((7-(3-fluoro-4-(methylcarbamoyl)benzyl)-4-methoxy-2,3-dihydro-1-benzofuran-5-yl)carbonyl)amino)-L-threo-pentitol]	18 nM	5.9 ± 0.9	9.05 mL/min/kg	54 min	42 min	–
Cn1cnc(-c2ccc(Cc3cc(C(=O)N[C@H]4CCOC[C@@H]4O)c(F)c4c3OCC4)cc2)c1 [Example 5, 1,5-anhydro-2,3-dideoxy-3-(((4-fluoro-7-(4-(1-methyl-1H-imidazol-4-yl)benzyl)-2,3-dihydro-1-benzofuran-5-yl)carbonyl)amino)-L-threo-pentitol]	3.7 nM	6.3 ± 0.7	11.1 mL/min/kg	36 min	30 min	8.7 ± 1.2
CCOCCNC(=O)c1ccc(Cc2cc(C(=O)N[C@H]3CCOC[C@@H]3O)c(F)c3c2OCC3)cc1F [Example 14, 1,5-anhydro-2,3-dideoxy-3-(((7-(4-((2-ethoxyethyl)carbamoyl)-3-fluorobenzyl)-4-fluoro-2,3-dihydro-1-benzofuran-5-yl)carbonyl)amino)-L-threo-pentitol]	20 nM	6.8 ± 1.3	22.9 mL/min/kg	36 min	42 min	10.4 ± 1.1
COCCNC(=O)c1ccc(Cc2cc(C(=O)N[C@H]3CCOC[C@@H]3O)c(F)c3c2OCC3)cc1F [Example 13, 1,5-anhydro-2,3-dideoxy-3-(((4-fluoro-7-(3-fluoro-4-((2-methoxyethyl)carbamoyl)benzyl)-2,3-dihydro-1-benzofuran-5-yl)carbonyl)amino)-L-threo-pentitol]	4.2 nM	9.9 ± 1.6	13.7 mL/min/kg	72 min	60 min	–
Cn1cc(-c2ccc(Cc3cc(C(=O)N[C@H]4CCOC[C@@H]4O)c(F)c4c3OCC4)cn2)cn1 [Example 6, 1,5-anhydro-2,3-dideoxy-3-(((4-fluoro-7-((6-(1-methyl-1H-pyrazol-4-yl)pyridin-3-yl)methyl)-2,3-dihydro-1-benzofuran-5-yl)carbonyl)amino)-L-threo-pentitol]	2 nM	6.6 ± 0.9	6.5 mL/min/kg	84 min	72 min	–
COCCCNC(=O)c1ccc(Cc2cc(C(=O)N[C@H]3CCOC[C@@H]3O)c(OC)c3c2CCC3)cc1F [Example 60, 1,5-anhydro-2,3-dideoxy-3-(((7-(3-fluoro-4-((3-methoxypropyl)carbamoyl)benzyl)-4-methoxy-2,3-dihydro-1H-inden-5-yl)carbonyl)amino)-L-threo-pentitol]	17 nM	6.9 ± 1.2	18.6 mL/min/kg	36 min	48 min	11.4 ± 1.2
